Data set [1] can be described thus: Intraperitoneal administration of FITC-modified polypeptide, localization around the hippocampus. Format: in vivo. As to conditions: FITC-modified #4 polypeptide, 150 mg/kg intraperitoneally, three consecutive days, mouse. How it is done: Subsequently, FITC-modified #4 polypeptide prepared by using a known method was intraperitoneally administered to a mouse. The dose was 150 mg/kg, and the administration was conducted for three consecutive days. Four days after, the mice were euthanized to prepare test pieces of tissue around the hippocampus. As the negative control experiment, DMSO was administered in place of FITC-modified #4 polypeptide.
In the figure, “CPLV” indicates the area called the “choroid plex” for producing cerebrospinal fluid.

Data set [2] addresses T1, APP in CHO-K1 cells (Cricetulus griseus, UniProt A0A8C2MGG8).
T1 construct: CHO-K1 cells expressing endogenous APP protein at a low level; endogenous in cells; host or cells: CHO-K1
Kind of data set: Analysis of subcellular distribution in CHO-K1 cells. The data set is classed as cell-based. As to conditions: Biotin-modified #4 polypeptide, avidin-modified Alexa488; CHO-K1 cells expressing endogenous APP at a low level. How it is done: Biotin-modified #4 polypeptide was prepared using a known method. This polypeptide was allowed to react with CHO-K1 cells and the 7WD10 cells mentioned above, and the resulting cells were immobilized, and then treated with Triton X-100. Thereafter, avidin-modified Alexa488 was reacted with the above. As the negative control experiment, an experiment was conducted reacting avidin-modified Alexa 488 in place of Biotin-modified #4 polypeptide.

In data set [3] the test system is Notch transiently expressed in CHO-K1 cells (7WD10 cells). Kind of data set: Cleavage of Notch protein (NICD) in 7WD10 cells. As to conditions: polypeptide 1, 5, 10, 20, and 50 μM. The data set is classed as cell-based. How it is done:
An experiment was conducted wherein #1, #2, and #4 polypeptides were reacted with CHO-K1 cells (7WD10 cells) that stably expressed APP protein and transiently expressed Notch to confirm the production of Aβ protein and cleavage of Notch protein.

In data set [4] the test system is CHO-K1 cells. Nature of the data set: Mouse Aβ production inhibition experiment, CHO-K1 cells. The data set is classed as cell-based. As to conditions: polypeptide 20 μM, CHO-K1 cells expressing mouse-type APP, anti-mouse Aβ antibody Western blotting. How it is done:
(§1) #1, #2, and #4 polypeptides were added to the culture solutions of CHO-K1 cells and Neuro 2A cells (N2A) in such a manner that the final concentration was 20 μM. As a control, L685458 (i.e., a γ-secretase inhibitor) and DMSO were added thereto in such a manner that the final concentration was 20 μM.
(§2) Thereafter, Aβ contained in the cell culture medium was identified by using a Western-blotting method with an antibody (anti-mouse Aβ antibody) that recognizes Aβ. […] In the figure, L indicates L685458, which is a γ-secretase inhibitor (final concentration of 1 μM).

Data set [5] deals with γ-secretase against βCTF (C99-FLAG) (Homo sapiens, UniProt P05067). Nature of the data set: γ-Secretase activity inhibition experiment in vitro, C99-FLAG substrate. The data set is classed as biochemical. Conditions: polypeptide 50 μM, 4 hours, 37° C., Western blotting. How it is done:
A polypeptide having βCTF (C99-FLAG: SEQ ID NO: 16) and mouse-derived Notch protein having a FLAG peptide at the C-terminal side (modification of NCBI Accession No. Q01705.2; SEQ ID NO: 17; hereunder referred to as “Notch”) shown in FIG. 2(A) were each made into a solution having a final concentration of 50 nM.
To these solutions, 9-7 polypeptide, 6-5 polypeptide, #1 polypeptide, #2 polypeptide, #3 polypeptide, and #4 polypeptide were added in such a manner that the final concentrations were 50 μM, followed by reacting with 50 μL of CHAPSO-solubilized membrane fraction (γ-secretase-containing fraction) for 4 hours. The reaction temperature was 37° C. As a negative control experiment, DMSO was used in place of the six types of polypeptides described above.
Each sample after completion of the reaction was measured in the following manner. As shown in FIG. 2(A), a sample using C99-FLAG was subjected to Western blotting using a monoclonal antibody (82E-1) that specifically recognizes the N terminal of C99-FLAG, and the amount of Aβ40 protein produced by the cleavarage by γ-secretase was measured. In contrast, the reaction sample using Notch-FLAG was subjected to Western blotting using an anti-FLAG monoclonal antibody, and the amount of NICD produced to the separete by γ-secretase was also measured. FIG. 2(B) and FIG. 2(C) show the results.
An experiment was conducted in the same manner as in Experimental Example 1 described above, except that only #1 polypeptide was used and the amount of #1 polypeptide was selected so that the final concentrations were 0.5, 1, 5, 10, 20, and 50 μM.
An experiment was conducted in the same manner as in Experimental Example 1 described above, except that S4 polypeptide was used as the polypeptide, and each addition amount was set in such a manner that the final concentrations were 1, 5, 10, 20, and 50 μM. In this Experimental Example, #4 polypeptide was added in such a manner that the final result was 50 μM.

The test system of data set [6] is Neuro 2A cells (N2A). Kind of data set: Mouse Aβ production inhibition experiment, Neuro 2A cells. Format: cell-based. Conditions: polypeptide 20 μM, Neuro2A cells expressing mouse-type APP, anti-mouse Aβ antibody Western blotting. How it is done: as §1, §2
(In general: Immunoblotting shows a protein as a band on a membrane.)

For data set [7], the target named is β-secretase against APP (APP-EQ-FLAG) (Homo sapiens, UniProt P05067). Kind of data set: β-Secretase activity inhibition experiment in vitro, APP-EQ-FLAG substrate. Format: biochemical. Here is the method:
A solution containing the polypeptide having APP (APP-EQ-FLAG: SEQ ID NO: 18) as shown in FIG. 5(A) was prepared in such a manner that its final concentration was 50 nM.
To this solution, 9-7 polypeptide, 6-5 polypeptide, #1 polypeptide, #2 polypeptide, #3 polypeptide, #4 polypeptide, #5 polypeptide, #6 polypeptide, #7 polypeptide, #8 polypeptide, #9 polypeptide, and #10 polypeptide were added in such a manner that each solution had the final concentration of 50 μM, followed by reacting with 50 μL β-secretase (0.02 U/μL) for 4 hours. The reaction temperature was 37° C. As a negative control experiment, DMSO was used in place of the 12 types of polypeptides mentioned above.
After completion of the reaction, each sample was subjected to Western blotting using a monoclonal antibody (82E-1) that specifically recognizes the N terminal of APP-EQ-FLAG as shown in FIG. 5(A). Thereafter, the amount of Aβ33-FLAG protein separated by β-secretase was measured.
An experiment was conducted in the same manner as Experimental Example 4 described above except that S4 and #4 polypeptides were used as the polypeptide and the amounts of these polypeptides added were adjusted so that the final concentrations were 1, 5, 10, 20, 50, and 100 μM.

The record followed here is US9045525B2, “Amyloid β-protein-specific production-inhibiting polypeptide” (THE DOSHISHA, priority 2012, dated 2015).

Each structure is given as a SMILES string. Peptide text beside a SMILES is read from it.

Sequence of β-secretase against APP (APP-EQ-FLAG) (P05067 with tags, fused parts or gaps): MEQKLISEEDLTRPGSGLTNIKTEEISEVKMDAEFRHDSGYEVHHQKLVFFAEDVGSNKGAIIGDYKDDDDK
Sequence of γ-secretase against βCTF (C99-FLAG) (P05067 with tags, fused parts or gaps): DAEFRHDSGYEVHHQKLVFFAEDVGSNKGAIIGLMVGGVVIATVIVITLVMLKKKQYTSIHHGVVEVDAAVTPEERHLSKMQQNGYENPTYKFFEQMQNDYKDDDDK
T1 sequence (A0A8C2MGG8 18-770): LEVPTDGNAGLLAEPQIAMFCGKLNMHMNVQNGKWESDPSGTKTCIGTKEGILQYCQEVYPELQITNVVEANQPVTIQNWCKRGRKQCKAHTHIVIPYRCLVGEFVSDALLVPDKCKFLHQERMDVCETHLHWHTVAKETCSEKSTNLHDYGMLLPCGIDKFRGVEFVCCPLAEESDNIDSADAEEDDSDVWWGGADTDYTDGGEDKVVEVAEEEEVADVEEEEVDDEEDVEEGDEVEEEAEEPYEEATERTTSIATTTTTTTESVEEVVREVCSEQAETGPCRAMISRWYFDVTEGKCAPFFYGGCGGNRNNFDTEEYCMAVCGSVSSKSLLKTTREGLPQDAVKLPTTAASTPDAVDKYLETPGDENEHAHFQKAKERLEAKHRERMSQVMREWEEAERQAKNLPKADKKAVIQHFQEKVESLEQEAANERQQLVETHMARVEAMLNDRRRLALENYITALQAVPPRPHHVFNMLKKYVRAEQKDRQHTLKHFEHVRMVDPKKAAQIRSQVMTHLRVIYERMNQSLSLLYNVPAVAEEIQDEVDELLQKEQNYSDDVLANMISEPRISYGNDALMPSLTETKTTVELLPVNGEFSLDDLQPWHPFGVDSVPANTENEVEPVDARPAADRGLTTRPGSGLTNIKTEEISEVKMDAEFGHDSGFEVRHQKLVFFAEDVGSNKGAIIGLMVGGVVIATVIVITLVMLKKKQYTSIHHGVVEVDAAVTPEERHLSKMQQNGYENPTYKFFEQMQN

Consider `CC[C@H](C)[C@H](NC(=O)[C@H](CC(=O)O)NC(=O)[C@@H](NC(=O)[C@@H](NC(=O)[C@H](CS)NC(=O)[C@H](Cc1ccc(O)cc1)NC(=O)[C@H](CS)NC(=O)[C@H](CC(=O)O)NC(=O)[C@H](CS)NC(=O)[C@@H](NC(=O)[C@@H](NC(=O)[C@H](CC(C)C)NC(=O)[C@H](Cc1c[nH]cn1)NC(=O)[C@H](CCSC)NC(C)=O)C(C)C)[C@@H](C)CC)[C@@H](C)O)[C@@H](C)O)C(=O)N[C@@H](CS)C(=O)N[C@@H](Cc1ccc(O)cc1)C(=O)N[C@@H](CS)C(=O)N[C@@H](Cc1ccc(O)cc1)C(=O)N[C@@H](CO)C(=O)N[C@@H](CS)C(=O)N[C@H](C(=O)N1CCC[C@H]1C(=O)N[C@@H](CC(N)=O)C(N)=O)[C@@H](C)O` [#4] (Ac-MHLVICDCYCTTDICYCYSCTPN-NH2), for which, in data set [1], the “presence of polypeptide in CA1 region (fluorescent microscopy)” value is given as “a portion dyed green indicating the presence of #4 polypeptide was confirmed”, the “presence of polypeptide in choroid plex (CPLV)” value was “a portion dyed green indicating the presence of #4 polypeptide was confirmed in the blood vessel” and the “presence of polypeptide in dentate gyrus (DG)” value was “a portion dyed green indicating the presence of #4 polypeptide was also confirmed”. For the same compound, in data set [2], the “binding to APP in cells” value is given as “binded to APP in the cells”. Moreover, the “abundance of the NICD in the cell lysate” value in data set [3] is reported as “not decreased”. The “production of Aβ in the culture medium” value in data set [4] was “the production of Aβ in the culture medium was reduced”. Also, the “cleavage activity of γ-secretase against βCTF (Aβ40 from C99-FLAG)” value in data set [5] is on record as “inhibited more cleavage activity of γ-secretase against βCTF”. In addition, in data set [6], the “production of Aβ in the culture medium” value is recorded as “the production of Aβ in the culture medium was reduced”. In addition, in data set [7] (polypeptide 50 μM, 4 hours, 37° C., Western blotting), the “cleavage activity of β-secretase against APP (Aβ33-FLAG)” value is on record as “inhibit the cleavage activity of β-secretase against APP more intensely”. In data set [7] (polypeptide 1, 5, 10, 20, 50, and 100 μM), the “cleavage activity of β-secretase against APP” value is “inhibited the cleavage activity of β-secretase against APP in a concentration-dependent manner”.
